The values below come from patent US20080015194A1, “METHODS AND COMPOSITIONS OF TARGETED DRUG DEVELOPMENT” (priority 2006, published 2008).

Where two headings read alike, the source gives them in different places.

Assay [1] addresses T1, EGFR (Rattus norvegicus, UniProt G3V6K6).
T1 construct: Receptor source was rat liver membranes; tissue NovaScreen BioSciences; host or cells: rat liver membranes
Put plainly: Inhibition of [125I]EGF binding to EGFR, radioligand filtration assay (NovaScreen). The conditions noted are these: rat liver membranes. As for the experimental part:
Identified compounds, representing various pharmacaphore models, were tested for ability to inhibit EGFR at 25 μM.
AD4-compounds were identified using pharmacophore models (see Example 4) and then were docked with the binding site of EGFR (SEQ ID NO: 1) that is recognized by defined CDRs of cetuximab. The inhibition of epidermal growth factor binding by AD4-compounds was then determined (NovaScreen BioSciences, Hanover, Md.). Inhibition of EGF binding was determined at 25 μM concentration.
Receptor source was rat liver membranes. The radioligand was [^125I]EGF ([…]) at a final ligand concentration of 0.36 nM. A non-specific determinant was used as EGF—[100 nM]. The reference compound and positive control was EGF. Reactions were carried out in 10 mM HEPES (pH 7.4) containing 0.1% BSA at 25 °C for 60 minutes. The reaction was terminated by rapid vacuum filtration onto glass fiber filters. Radioactivity trapped onto the filters was determined and compared to control values to ascertain any interactions of test compounds with the EGF binding site. The EGF inhibitor assays were modified from, for example, Mukku (1984) J. Biol. Chem. 259, 6543-6546; Duh et al. (1990) World J. Surgery 14, 410-418; Lokeshwar et al. (1989) J. Biol. Chem. 264(32), 19318-19326.

The target in assay [2] is EGF receptor of rat liver membranes (rat). In words: radioligand binding of [125I]EGF to rat liver membranes, filtration (NovaScreen).
The mark [3] stands for this setting: 25 μM compound, [125I]EGF 0.36 nM, read-out: inhibition of binding of EGF to EGFR.
The mark [4] stands for this setting: inhibition of [125I]EGF binding at 25 μM, read-out: EGFR INHIBITION
The mark [5] stands for this setting: 25 μM compound, [125I]EGF 0.36 nM.

T1 sequence (G3V6K6 25-1209): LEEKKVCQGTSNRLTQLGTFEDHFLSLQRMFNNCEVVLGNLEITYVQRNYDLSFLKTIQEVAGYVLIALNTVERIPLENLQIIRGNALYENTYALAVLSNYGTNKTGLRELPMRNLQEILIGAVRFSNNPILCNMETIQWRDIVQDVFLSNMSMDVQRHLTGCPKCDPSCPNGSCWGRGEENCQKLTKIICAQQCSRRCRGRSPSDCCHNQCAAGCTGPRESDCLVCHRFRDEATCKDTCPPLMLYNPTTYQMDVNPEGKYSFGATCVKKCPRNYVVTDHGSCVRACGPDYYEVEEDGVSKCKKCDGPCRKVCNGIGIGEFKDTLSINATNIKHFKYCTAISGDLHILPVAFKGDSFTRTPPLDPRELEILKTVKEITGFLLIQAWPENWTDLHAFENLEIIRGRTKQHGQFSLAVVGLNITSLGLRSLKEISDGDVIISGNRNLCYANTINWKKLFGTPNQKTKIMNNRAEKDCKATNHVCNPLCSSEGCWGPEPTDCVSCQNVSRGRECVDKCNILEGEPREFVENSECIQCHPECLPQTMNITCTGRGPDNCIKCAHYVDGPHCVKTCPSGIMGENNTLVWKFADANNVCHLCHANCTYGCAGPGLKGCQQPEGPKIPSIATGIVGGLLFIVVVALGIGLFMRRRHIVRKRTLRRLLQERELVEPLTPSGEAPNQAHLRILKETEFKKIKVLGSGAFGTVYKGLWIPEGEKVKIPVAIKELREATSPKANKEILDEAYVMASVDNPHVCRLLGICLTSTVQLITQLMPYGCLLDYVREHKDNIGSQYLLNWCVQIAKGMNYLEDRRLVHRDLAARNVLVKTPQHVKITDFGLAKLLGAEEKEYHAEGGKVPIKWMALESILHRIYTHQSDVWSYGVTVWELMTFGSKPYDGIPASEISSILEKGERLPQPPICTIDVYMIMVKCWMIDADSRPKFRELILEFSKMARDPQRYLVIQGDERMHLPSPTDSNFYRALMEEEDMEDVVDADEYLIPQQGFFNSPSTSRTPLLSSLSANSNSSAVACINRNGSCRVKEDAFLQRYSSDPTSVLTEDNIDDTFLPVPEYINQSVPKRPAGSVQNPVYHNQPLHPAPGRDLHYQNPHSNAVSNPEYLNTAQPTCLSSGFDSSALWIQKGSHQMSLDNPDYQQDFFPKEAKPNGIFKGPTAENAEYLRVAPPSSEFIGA

As for `CC1=C(C(=O)Nc2cccc(C)c2)C(c2ccc(O)cc2)NC(=O)N1` (stereo not shown) [AD4-1010, 4-(4-hydroxyphenyl)-6-methyl-N-(3-methylphenyl)-2-oxo-1,2,3,4-tetrahydro-5pyrimidinecarboxamide], the inhibition at 25 µM in assay [1] (setting [3]) and in assay [1] (setting [4]) was 39.4% in each case.
Consider `CCOc1ccc(/C(C)=N/N=C2\NC(=O)C(CC(=O)O)S2)cc1` (stereo not shown) [AD4-1016], for which the inhibition at 25 µM in assay [1] (setting [4]) stood at 37.8%.
For the molecule `O=C(N/N=C/c1cc(Cl)ccc1O)c1ccc(O)cc1` [AD4-1017], the inhibition at 25 µM in assay [1] (setting [4]) was found to be 35%.
The same measure, in the same setting: to `Oc1ccc(/C=N/N=C/c2ccc(O)cc2O)c(O)c1` [AD4-1018] belongs 36.2%.
In the case of `O=C(O)Cn1nnc(-c2ccc(OCc3ccccc3)cc2)n1` [AD4-1020, {5-[4-(benzyloxy)phenyl]-2H-tetrazol-2-yl}acetic acid], the “inhibition of binding of EGF to EGFR” value in assay [1] (setting [5]) is on record as 48%. The inhibition at 25 µM in assay [1] (setting [3]) and in assay [1] (setting [4]) was 47.8% throughout.
With `CC(Oc1ccc(C(=O)NCCc2ccccc2)cc1)C(=O)O` (stereo not shown) [AD4-1021], the inhibition at 25 µM in assay [1] (setting [3]) is 43%; in assay [1] (setting [4]), 43.4%.
With `Cc1cc(C)c(OCC(=O)Nc2cc(O)ccc2C(=O)O)cc1C` [AD4-1022], the inhibition at 25 µM was determined as 39% in assay [1] (setting [3]) and 38.6% in assay [1] (setting [4]).
Take `O=C(O)C[C@H](NCc1cccnc1)C(=O)Nc1ccc(Cl)cc1` [AD4-1025, N^1-(4-chlorophenyl)-N^2-(3-pyridinylmethyl)-alpha-asparagine]: in assay [1] (setting [5]), the “inhibition of binding of EGF to EGFR” value stood at 76%. In addition, the inhibition at 25 µM in assay [1] (setting [3]) and in assay [1] (setting [4]) was 75.7% in each case.
Consider `O=C(O)CCc1ccc(-c2ccc(Cl)cc2)n1CCC(=O)O` [AD4-1027], for which the inhibition at 25 µM in assay [1] (setting [3]) turned out to be 39%; in assay [1] (setting [4]), 38.6%.
`COc1cccc(OCC(=O)Nc2ccccc2C(=O)O)c1` [AD4-1030]: the inhibition at 25 µM is 38% in assay [1] (setting [3]) and 37.7% in assay [1] (setting [4]).
The matching figures for `CN(C1=NC(=O)C(CC(=O)O)S1)c1ccc(O)cc1` (stereo not shown) [AD4-1038, {2-[(4-Hydroxy-phenyl)-methyl-amino]-4-oxo-4,5-dihydro-thiazol-5-yl}-acetic acid]: 70.7% and 70.9%.
The matching figures for `O=C(CC(NCC1CCCO1)C(=O)O)Nc1cccc(Cl)c1` (stereo not shown) [AD4-1039]: 32% and 31.7%.
Regarding `CCCC(NC(=O)CCc1c(C)c2ccc(O)cc2oc1=O)C(=O)O` (stereo not shown) [AD4-1047], in assay [1] (setting [4]), the inhibition at 25 µM stood at 32.7%.
On to `COc1cc(/C=N/NC(=O)c2ccc(O)cc2O)ccc1O` [AD4-1057], for which the inhibition at 25 µM in assay [1] (setting [4]) was determined as 30.1%.
Turning to `Cn1c(=O)c2c(nc(SCCCO)n2Cc2ccccc2)n(C)c1=O` [AD4-1060], in assay [1] (setting [4]), the inhibition at 25 µM is 30.2%.
Regarding `NC(=O)C1CCN(C2CC(=O)N(c3ccc(C(=O)O)cc3)C2=O)CC1` (stereo not shown) [AD4-1108], the inhibition at 25 µM in assay [1] (setting [4]) was found to be 33.1%.
Take `O=C(O)CCCN1C(=O)/C(=C/c2cccc(O)c2)SC1=S` [AD4-1109]: the inhibition at 25 µM in assay [1] (setting [4]) stood at 36.5%.
On to `CCOc1cc(C=C2C(=O)NC(=O)NC2=O)ccc1CC(=O)O` [AD4-1121], for which the inhibition at 25 µM in assay [1] (setting [4]) was determined as 35%.
Still for that read-out and setting: in the case of `O=C(NC(=S)Nc1ccc(O)c(C(=O)O)c1)c1ccccc1` [AD4-1123] it was 34.1%; in that of `O=C1Nc2ccccc2C1(O)C/C(=N/O)c1ccc2c(c1)OCCO2` (stereo not shown) [AD4-1124], 33.1%.
For `Cc1ccc(OCCn2c(SCCO)nc3c(N)ncnc32)cc1` [AD4-1128], the inhibition at 25 µM in assay [1] (setting [4]) came to 38%.
As for `Cc1ccc(OCC(=O)Nc2ccc(O)cc2C(=O)O)c(C)c1` [AD4-1132, 2-{[(2,4-dimethylphenoxy)acetyl]amino}-5-hydroxybenzoic acid], the inhibition at 25 µM in assay [1] (setting [3]) and in assay [1] (setting [4]) was 59.6% each time.
On to `Oc1ccc(-c2csc(NCc3ccco3)n2)c(O)c1` [AD4-1133], for which the inhibition at 25 µM in assay [1] (setting [4]) was found to be 37.3%.
`Cc1ccc(C(=O)Nc2ccc(C(=O)NCCCC(=O)O)cc2)o1` [AD4-1139]: the inhibition at 25 µM in assay [1] (setting [4]) was 39%.
As for `O=C(CC1SC(Nc2ccc(O)cc2)=NC1=O)Nc1ccc(Br)cc1` (stereo not shown) [AD4-1140], the inhibition at 25 µM in assay [1] (setting [4]) stood at 36.5%.
Consider `O=C(O)c1ccccc1SC1CC(=O)N(c2ccc(O)cc2)C1=O` (stereo not shown) [AD4-1141], for which, in assay [1] (setting [4]), the inhibition at 25 µM worked out at 46.7%.
With `COC(=O)c1cc(NC(=O)CSc2nc(C)cc(=O)[nH]2)cc(C(=O)OC)c1` [AD4-1147], the inhibition at 25 µM in assay [1] (setting [4]) is 43.4%.
As for `NC(=O)CCC(Nc1ncnc2ccccc12)C(=O)O` (stereo not shown) [AD4-1148], the inhibition at 25 µM in assay [1] (setting [4]) was 43.2%.
As for `O=C(O)CC(NCc1ccco1)C(=O)Nc1ccc2ccccc2c1` (stereo not shown) [AD4-1149], the inhibition at 25 µM in assay [1] (setting [4]) came to 33.6%.
For `O=C(O)COc1ccc(C(=O)NCc2ccccc2)cc1` [AD4-1150], in assay [1] (setting [4]), the inhibition at 25 µM is 43.1%.
As for `CN(Cc1ccccc1)S(=O)(=O)c1ccc(O)c(C(=O)O)c1` [AD4-1153], the inhibition at 25 µM in assay [1] (setting [4]) came out at 34%.
As to `Cc1cccc(NC(=O)C(CC(=O)O)NCc2ccccc2)c1` (stereo not shown) [AD4-1155], the inhibition at 25 µM in assay [1] (setting [4]) is 30.1%.
The same measure, in the same setting: in the case of `O=C(O)Cn1nnc(-c2ccc(OCc3cccc(C(F)(F)F)c3)cc2)n1` [AD4-1164] it was 33.3%; in that of `Cc1ccc(Cl)cc1NC(=O)CC(C(=O)O)N1CCNCC1` (stereo not shown) [AD4-1165], 47.2%.
As for `Cc1cccc(NC(=O)CC(NCCN2CCOCC2)C(=O)O)c1` (stereo not shown) [AD4-1166], in assay [1] (setting [4]), the inhibition at 25 µM was determined as 31.2%.
For the molecule `CCN(CC)c1ccc(NC(=O)C(CC(=O)O)NCc2ccccc2)cc1` (stereo not shown) [AD4-1167], the inhibition at 25 µM in assay [1] (setting [4]) came out at 30.6%.
Regarding `O=C(O)COc1ccc(-c2nnn(CC(=O)O)n2)cc1` [AD4-1169], the inhibition at 25 µM in assay [1] (setting [4]) amounted to 31.4%.
On the same count and under the same terms, in the case of `O=C(O)CC(NCc1ccccc1)C(=O)Nc1ccc(Cl)cc1` (stereo not shown) [AD4-1171] it was 47.2%; in that of `O=C(O)Cn1nnc(-c2ccc(OCc3c(F)cccc3Cl)cc2)n1` [AD4-1175], 35.1%; in that of `CCNc1nc(N)nc(Oc2ccc(OCc3ccccc3)nn2)n1` [AD4-1176], 34%.
Regarding `O=C(CSc1ccccc1)Nc1ccc(O)c(C(=O)O)c1` [AD4-1178], the inhibition at 25 µM in assay [1] (setting [4]) was determined as 34.6%.
In assay [2], “[125I]EGF (epidermal growth factor radioligand)” registered a Bmax (receptor number) (fmol/mg tissue (wet weight)) of 43 and a Kd of 1.04 nM.
